Data taken from patent US20240336577A1, “PYRAZINE COMPOUND, AND METHOD OF PREPARATION AND USE THEREOF” (SHENZHEN OLIVE BIOPHARMACEUTICALS CO., LTD, priority 2020, published 2024).

Assays:
[1] = system: SH—SY5Y neuroblastoma cells; experiment: LPS-induced inflammatory factors and oxidative stress-related proteins, ELISA kit; format: cell-based; conditions: 1 μg/mL LPS 24 h, mean±SEM, n=8; for TNF-alpha: differentiated SH-SY5Y, supernatant
Experimental: The SH—SY5Y cells were recovered and cultured, and the cells in the logarithmic growth phase were taken. After 24 h of incubation, SH—SY5Y neuroblastoma cells were treated with 1 μM all-trans retinoic acid to induce differentiation, and then inoculated into a 6-well culture dish for 24 h of incubation. The medium was treated with chemicals feed at 0.2 μM (L) or 1 μM (H) and 1 μg/mL LPS for 24 h, a supernatant medium was aspirated, and changes of inflammatory factors and oxidative stress-related proteins were measured by an ELISA kit. Data were presented as mean±SEM; n=8 per group. One-way ANOVA and multiple range test were adopted to show differences between the two groups. a, p<0.05 vs. LPS group; b, p<0.01 vs. LPS group; c, p<0.001 vs. LPS group.

[2] = system: db/db mice; experiment: Urinary protein level in db/db mice, 90 d administration; format: in vivo; conditions: once/d 90 d, OLB-1 11.7 mg/kg, OLB-2 11.67 mg/kg, FIG. 2
Experimental: Mice of a normal control group and model mice were given normal saline 10 ml/kg/d, Losartan 10 mg/kg, TMP (5.0 mg/kg, 0.037 mmol/kg), OLB-1 (11.7 mg/kg, 0.037 mmol/kg), and OLB-2 (11.67 mg/kg, […]), at a volume of 10 mL/kg, once/d, for continuous administration of 90 d, urine protein levels were measured after urine collection. Data were presented as mean±SEM; n=6 per group. One-way ANOVA and multiple range test were adopted to show differences between the two groups. a, p<0.05 vs. db/db group; c, p<0.001 vs. db/db group.

[3] = system: ALS (SOD-G93A) transgenic mice; experiment: Pole climbing test in ALS transgenic mice; format: in vivo; conditions: different dosages of OLB-1, OLB-2, riluzole 5 mg/kg, FIG. 6
Source text: The pole climbing test is generally used to evaluate a motor coordination ability and motor delay of the limbs in mice. A homemade wooden pole about 50 cm long and about 1 cm in diameter was wrapped with medical gauze to increase friction of the wooden pole. The wooden pole was put vertically on a horizontal table, the mouse tail was grabbed such that the mouse head was facing down, with limbs grabbing a top of the pole; after releasing the mouse tail, timing was started, and it was ensured that the mouse crawled downward without external force, and the time was recorded for the mouse to climb from the top of the pole to a bottom platform (a standard was that mouse hind limbs were landed on the ground). […] An average of the three pole climbing times of mice was calculated as a final pole climbing time. […] Data were presented as mean±SEM; n=10 per group. One-way ANOVA and multiple range test were adopted to show differences between the two groups. ***p<0.001 vs. WT (normal control) group; #p<0.05, ##p<0.01 vs. ALS (SOD-G93A) group.

[4] = system: db/db mice; experiment: Biochemical and metabolic indicators in db/db mice, 90 d administration; format: in vivo; conditions: once/d 90 d, Losartan 15 mg/kg/d, TMP 5.0 mg/kg, OLB-1 2.31 mg/kg, OLB-2 2.3 mg/kg, mean±SEM, n=6
[5] = system: 5*FAD mice; experiment: Pro-inflammatory factors in hippocampus of 5*FAD mice, ELISA; format: in vivo; conditions: 6-month-old 5*FAD mice treated 3 months, low and high dosage; FIG. 3 and FIG. 4
Experimental: After 6-month-old 5*FAD mice were treated with OLB-1 and OLB-2 for 3 months, the levels of IL-1β (A) and TNFα (B) in mouse hippocampus were detected by ELISA. 5*FAD mice were treated with low-dosage and high-dosage OLB-1 (low dosage: 2.31 mg/kg, 0.007 mmol/kg; high dosage: 11.70 mg/kg, 0.037 mmol/kg, the same below) and OLB-2 (low dosage: 2.3 mg/kg, 0.007 mmol/kg; high dosage: 11.67 mg/kg, 0.037 mmol/kg, the same below) and TMP (5.0 mg/kg, 0.037 mmol/kg, the same below). Data were presented as mean±SEM; n=5 to 6 per group. One-way ANOVA and multiple range test were adopted to show differences between the two groups. **p<0.01, ***p<0.001 vs. WT group; #p<0.05, ##p<0.01, ###p<0.001 vs. 5*FAD group.

[6] = system: SH—SY5Y cells; experiment: Neuroprotection against oxygen glucose deprivation (OGD), MTT assay; format: cell-based; conditions: 4 h OGD, FIG. 1
Experimental: Neuroprotective effect of tetramethylpyrazine (TMP) and derivatives thereof was evaluated by MTT assay. Cells were incubated, log-phase cells were collected, a concentration of a cell suspension was adjusted, an MTT-containing medium was added after chemical treatment and 4 h of incubation with OGD, incubation was conducted for 4 h, the medium in the wells was carefully removed, and 150 μl of dimethyl sulfoxide (DMSO) was added to each well, shaken at a low speed for 10 min on a shaker to fully dissolve crystals, and an absorbance value of each well was measured at an OD (absorbance) value of 490 nm of an enzyme-linked immunosorbent assay instrument (at the same time, a zero adjustment well (medium, MTT, DMSO), a control well (cells, a drug dissolution medium with the same concentration, medium, MTT, DMSO)). Data were presented as mean±SEM; n=8 per group. One-way ANOVA and multiple range test were adopted to show differences between the two groups. a, p<0.001 vs. control group; b, p<0.05 vs. OGD group; c, p<0.001 vs. OGD group.

Row | Compound | GSH-Px ([1]; compound 0.2 μM (L)) | IL1 ([1]; compound 0.2 μM (L)) | IL6 ([1]; compound 0.2 μM (L)) | MDA ([1]; compound 0.2 μM (L)) | SOD ([1]; compound 0.2 μM (L)) | GSH-Px ([1]; compound 1 μM (H)) | IL1 ([1]; compound 1 μM (H)) | IL6 ([1]; compound 1 μM (H)) | MDA ([1]; compound 1 μM (H)) | SOD ([1]; compound 1 μM (H)) | TNF-alpha ([1]; compound 0.2 μM (L)) | TNF-alpha ([1]; compound 1 μM (H)) | urinary protein levels [2] | pole climbing time / symptoms of bradykinesia [3] | Creatinine [4] | Urea [4] | Urine albumin/creatinine [4] | proinflammatory cytokine IL-1β in hippocampus [5] | proinflammatory cytokine TNF-α in hippocampus [5] | death of SH—SY5Y cells caused by OGD [6]
1 | Cc1nc(C)c(COC(=O)OCCc2ccc(O)cc2)nc1C [OLB-1] | 8.39 ± 0.69(c) umol/mg | 10.94 ± 1.48(a) pg/ml | 11.60 ± 1.39(a) pg/ml | 16.15 ± 1.26(c) nmol/mg | 12.58 ± 0.72(b) nU/ml | 13.71 ± 0.84(c) umol/mg | 8.46 ± 1.33(b) pg/ml | 7.97 ± 1.61(c) pg/ml | 10.51 ± 0.74(c) nmol/mg | 16.76 ± 0.38(c) nU/ml | 9.64 ± 1.56(a) pg/ml | 6.78 ± 1.67(c) pg/ml | significantly reduced urinary protein levels | significantly improve the symptoms of bradykinesia | 48.7 ± 3.68(a) μmol/L | 8.03 ± 0.61(c) mmol/L | 438.69 ± 83.23(c) mg/g | significantly reduced | significantly reduced | significantly reduce the death
2 | Cc1nc(C)c(CNC(=O)OCCc2ccc(O)cc2)nc1C [OLB-2] | 7.93 ± 1.05(b) umol/mg | 10.34 ± 1.89(a) pg/ml | 11.05 ± 1.87(a) pg/ml | 15.75 ± 0.95(c) nmol/mg | 12.13 ± 0.65(b) nU/ml | 13.40 ± 1.24(c) umol/mg | 7.37 ± 1.58(c) pg/ml | 8.19 ± 1.24(c) pg/ml | 9.37 ± 0.73(c) nmol/mg | 15.16 ± 1.52(c) nU/ml | 9.92 ± 1.44(b) pg/ml | 6.99 ± 1.31(c) pg/ml | significantly reduced urinary protein levels | significantly improve the symptoms of bradykinesia | 46.28 ± 2.76(b) μmol/L | 7.48 ± 0.35(c) mmol/L | 477.51 ± 90.68(c) mg/g | significantly reduced | significantly reduced | significantly reduce the death
